Test results taken from article PMC6784069 (Toxins, 2019).
Read-outs that look alike come from different tables or passages of the source. Residues, ends and D or L forms follow the SMILES beside them.

Key:
[1] = biological target: T1, hNaV1.7 (Homo sapiens, UniProt Q15858); assay: cell-based; format: cell-based; conditions: for IC50: hNaV1.7 IC50
[2] = biological target: hCaV1.2 (Homo sapiens, UniProt Q13936); assay: cell-based; conditions: read-out: IC90–95 (compound concentration necessary to inhibit 90–95% of current)
[3] = biological target: T1, hNaV1.7; conditions: cited from earlier work
[4] = tested on: OD1-induced painful behavior of mice; conditions: mouse, in vivo; cited from earlier work

T1 sequence (Q15858 whole entry): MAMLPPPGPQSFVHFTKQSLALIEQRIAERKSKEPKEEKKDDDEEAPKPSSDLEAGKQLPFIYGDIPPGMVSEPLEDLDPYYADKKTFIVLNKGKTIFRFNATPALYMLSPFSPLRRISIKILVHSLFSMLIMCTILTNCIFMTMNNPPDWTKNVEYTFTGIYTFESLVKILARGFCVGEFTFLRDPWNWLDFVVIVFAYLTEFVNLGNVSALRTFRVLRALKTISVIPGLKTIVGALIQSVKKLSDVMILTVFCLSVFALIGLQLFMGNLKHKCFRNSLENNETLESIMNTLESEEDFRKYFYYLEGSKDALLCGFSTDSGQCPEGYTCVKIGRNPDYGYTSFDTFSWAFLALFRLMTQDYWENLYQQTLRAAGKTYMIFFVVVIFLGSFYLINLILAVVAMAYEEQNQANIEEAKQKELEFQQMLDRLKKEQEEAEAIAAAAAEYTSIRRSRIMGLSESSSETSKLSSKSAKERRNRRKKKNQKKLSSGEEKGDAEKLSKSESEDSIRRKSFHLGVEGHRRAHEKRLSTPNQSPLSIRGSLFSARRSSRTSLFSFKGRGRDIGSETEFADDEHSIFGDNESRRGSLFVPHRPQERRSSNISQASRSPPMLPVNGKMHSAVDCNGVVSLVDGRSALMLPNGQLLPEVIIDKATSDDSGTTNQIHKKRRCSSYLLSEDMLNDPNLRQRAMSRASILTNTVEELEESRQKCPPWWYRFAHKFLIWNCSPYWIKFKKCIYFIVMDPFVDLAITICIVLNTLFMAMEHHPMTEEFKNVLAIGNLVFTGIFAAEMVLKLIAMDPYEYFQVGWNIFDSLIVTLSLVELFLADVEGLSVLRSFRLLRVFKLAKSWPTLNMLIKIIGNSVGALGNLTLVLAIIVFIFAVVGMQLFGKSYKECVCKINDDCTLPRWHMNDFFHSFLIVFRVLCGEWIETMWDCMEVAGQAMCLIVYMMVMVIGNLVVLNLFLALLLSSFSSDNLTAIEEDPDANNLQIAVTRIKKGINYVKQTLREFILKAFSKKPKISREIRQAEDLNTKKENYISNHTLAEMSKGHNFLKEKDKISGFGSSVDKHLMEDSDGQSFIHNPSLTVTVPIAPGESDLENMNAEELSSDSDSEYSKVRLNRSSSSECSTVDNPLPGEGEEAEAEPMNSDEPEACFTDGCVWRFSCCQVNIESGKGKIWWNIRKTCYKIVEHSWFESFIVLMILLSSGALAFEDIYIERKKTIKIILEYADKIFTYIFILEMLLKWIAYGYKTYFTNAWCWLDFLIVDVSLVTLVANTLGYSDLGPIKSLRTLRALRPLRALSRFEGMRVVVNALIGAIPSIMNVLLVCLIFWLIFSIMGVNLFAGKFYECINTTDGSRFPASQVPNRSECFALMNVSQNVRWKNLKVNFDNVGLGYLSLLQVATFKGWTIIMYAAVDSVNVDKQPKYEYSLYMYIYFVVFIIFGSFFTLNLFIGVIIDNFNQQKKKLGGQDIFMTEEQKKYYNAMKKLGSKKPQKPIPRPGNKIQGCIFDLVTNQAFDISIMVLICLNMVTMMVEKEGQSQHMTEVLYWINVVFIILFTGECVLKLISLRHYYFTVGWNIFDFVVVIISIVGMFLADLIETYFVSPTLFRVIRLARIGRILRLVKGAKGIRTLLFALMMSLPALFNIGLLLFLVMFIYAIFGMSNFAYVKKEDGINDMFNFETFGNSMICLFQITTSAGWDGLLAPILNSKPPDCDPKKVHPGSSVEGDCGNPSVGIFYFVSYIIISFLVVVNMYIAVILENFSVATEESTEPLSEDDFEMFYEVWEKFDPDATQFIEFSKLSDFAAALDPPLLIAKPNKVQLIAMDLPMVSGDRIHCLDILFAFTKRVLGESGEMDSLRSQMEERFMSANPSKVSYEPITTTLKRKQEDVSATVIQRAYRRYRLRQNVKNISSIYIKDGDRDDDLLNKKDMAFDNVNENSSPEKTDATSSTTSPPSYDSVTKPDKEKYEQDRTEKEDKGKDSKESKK

Molecule	modification of variant affinity for hNaV1.7 relative to wild-type [1]	IC50 ([1]; SD)	other results
CC(C)C[C@@H]1NC(=O)[C@@H](NC(=O)[C@@H]2CCC(=O)N2)CSSC[C@@H]2NC(=O)[C@@H]3CSSC[C@@H](C(=O)N[C@@H](CCCNC(=N)N)C(=O)N[C@@H](Cc4ccc(O)cc4)C(=O)N[C@@H](CCCCN)C(=O)N[C@@H](CC(C)C)C(=O)N[C@@H](Cc4ccccc4)C(=O)O)NC(=O)[C@H](Cc4c[nH]c5ccccc45)NC(=O)[C@@H]4CCCN4C(=O)[C@H](Cc4ccc(O)cc4)NC(=O)[C@H](CCCCN)NC(=O)[C@H](Cc4c[nH]c5ccccc45)NC(=O)[C@H](CCC(=O)O)NC(=O)[C@H](CSSC[C@H](NC(=O)[C@H](CO)NC(=O)[C@H](CC(=O)O)NC(=O)[C@H](Cc4c[nH]c5ccccc45)NC(=O)[C@H](CCC(N)=O)NC(=O)CNC1=O)C(=O)N[C@@H](CC(=O)O)C(=O)N1CCC[C@H]1C(=O)N[C@@H](CCCCN)C(=O)N[C@@H](C)C(=O)N[C@@H](CO)C(=O)N[C@@H](CCCCN)C(=O)N3)NC(=O)[C@H](C)NC(=O)[C@H](Cc1ccc(O)cc1)NC(=O)[C@H](CC(N)=O)NC(=O)[C@@H]1CCCN1C2=O [A1Z] (HELM PEPTIDE1{[Glp].C.L.G.Q.W.D.S.C.D.P.K.A.S.K.C.C.P.N.Y.A.C.E.W.K.Y.P.W.C.R.Y.K.L.F}$PEPTIDE1,PEPTIDE1,2:R3-17:R3|PEPTIDE1,PEPTIDE1,9:R3-22:R3|PEPTIDE1,PEPTIDE1,16:R3-29:R3$$$V2.0)	less than 3 fold	172 nM	–
[Cl][Cd][Cl] [Cadmium (chloride), reference compound]	–	–	IC90 [2]: 200000 nM
CC(C)C[C@@H]1NC(=O)[C@@H](NC(=O)[C@H](C)N)CSSC[C@@H]2NC(=O)[C@@H]3CSSC[C@@H](C(=O)N[C@@H](CCCNC(=N)N)C(=O)N[C@@H](Cc4ccc(O)cc4)C(=O)N[C@@H](CCCCN)C(=O)N[C@@H](CC(C)C)C(=O)N[C@@H](Cc4ccccc4)C(=O)O)NC(=O)[C@H](Cc4c[nH]c5ccccc45)NC(=O)[C@@H]4CCCN4C(=O)[C@H](Cc4ccc(O)cc4)NC(=O)[C@H](CCCCN)NC(=O)[C@H](Cc4c[nH]c5ccccc45)NC(=O)[C@H](CCC(=O)O)NC(=O)[C@H](CSSC[C@H](NC(=O)[C@H](CO)NC(=O)[C@H](CC(=O)O)NC(=O)[C@H](Cc4c[nH]c5ccccc45)NC(=O)[C@H](CCC(N)=O)NC(=O)CNC1=O)C(=O)N[C@@H](CC(=O)O)C(=O)N1CCC[C@H]1C(=O)N[C@@H](C)C(=O)N[C@@H](C)C(=O)N[C@@H](CO)C(=O)N[C@@H](CCCCN)C(=O)N3)NC(=O)[C@H](C)NC(=O)[C@H](Cc1ccc(O)cc1)NC(=O)[C@H](CC(N)=O)NC(=O)[C@@H]1CCCN1C2=O [K12A] (HELM PEPTIDE1{A.C.L.G.Q.W.D.S.C.D.P.A.A.S.K.C.C.P.N.Y.A.C.E.W.K.Y.P.W.C.R.Y.K.L.F}$PEPTIDE1,PEPTIDE1,2:R3-17:R3|PEPTIDE1,PEPTIDE1,9:R3-22:R3|PEPTIDE1,PEPTIDE1,16:R3-29:R3$$$V2.0)	less than 3 fold	252 nM	–
CC(C)C[C@@H]1NC(=O)[C@@H](NC(=O)[C@H](C)N)CSSC[C@@H]2NC(=O)[C@@H]3CSSC[C@@H](C(=O)N[C@@H](CCCNC(=N)N)C(=O)N[C@@H](Cc4ccc(O)cc4)C(=O)N[C@@H](CCCCN)C(=O)N[C@@H](CC(C)C)C(=O)N[C@@H](Cc4ccccc4)C(=O)O)NC(=O)[C@H](Cc4c[nH]c5ccccc45)NC(=O)[C@@H]4CCCN4C(=O)[C@H](Cc4ccc(O)cc4)NC(=O)[C@H](CCCCN)NC(=O)[C@H](Cc4c[nH]c5ccccc45)NC(=O)[C@H](CCC(=O)O)NC(=O)[C@H](CSSC[C@H](NC(=O)[C@H](CO)NC(=O)[C@H](CC(=O)O)NC(=O)[C@H](Cc4c[nH]c5ccccc45)NC(=O)[C@H](CCC(N)=O)NC(=O)CNC1=O)C(=O)N[C@@H](CC(=O)O)C(=O)N1CCC[C@H]1C(=O)N[C@@H](CCCCN)C(=O)N[C@@H](C)C(=O)N[C@@H](CO)C(=O)N[C@@H](C)C(=O)N3)NC(=O)[C@H](C)NC(=O)[C@H](Cc1ccc(O)cc1)NC(=O)[C@H](CC(N)=O)NC(=O)[C@@H]1CCCN1C2=O [K15A] (HELM PEPTIDE1{A.C.L.G.Q.W.D.S.C.D.P.K.A.S.A.C.C.P.N.Y.A.C.E.W.K.Y.P.W.C.R.Y.K.L.F}$PEPTIDE1,PEPTIDE1,2:R3-17:R3|PEPTIDE1,PEPTIDE1,9:R3-22:R3|PEPTIDE1,PEPTIDE1,16:R3-29:R3$$$V2.0)	less than 3 fold	706 nM	–
CC(C)C[C@@H]1NC(=O)[C@@H](NC(=O)[C@H](C)N)CSSC[C@@H]2NC(=O)[C@@H]3CSSC[C@@H](C(=O)N[C@@H](CCCNC(=N)N)C(=O)N[C@@H](Cc4ccc(O)cc4)C(=O)N[C@@H](CCCCN)C(=O)N[C@@H](CC(C)C)C(=O)N[C@@H](Cc4ccccc4)C(=O)O)NC(=O)[C@H](Cc4c[nH]c5ccccc45)NC(=O)[C@@H]4CCCN4C(=O)[C@H](Cc4ccc(O)cc4)NC(=O)[C@H](C)NC(=O)[C@H](Cc4c[nH]c5ccccc45)NC(=O)[C@H](CCC(=O)O)NC(=O)[C@H](CSSC[C@H](NC(=O)[C@H](CO)NC(=O)[C@H](CC(=O)O)NC(=O)[C@H](Cc4c[nH]c5ccccc45)NC(=O)[C@H](CCC(N)=O)NC(=O)CNC1=O)C(=O)N[C@@H](CC(=O)O)C(=O)N1CCC[C@H]1C(=O)N[C@@H](CCCCN)C(=O)N[C@@H](C)C(=O)N[C@@H](CO)C(=O)N[C@@H](CCCCN)C(=O)N3)NC(=O)[C@H](C)NC(=O)[C@H](Cc1ccc(O)cc1)NC(=O)[C@H](CC(N)=O)NC(=O)[C@@H]1CCCN1C2=O [K25A] (HELM PEPTIDE1{A.C.L.G.Q.W.D.S.C.D.P.K.A.S.K.C.C.P.N.Y.A.C.E.W.A.Y.P.W.C.R.Y.K.L.F}$PEPTIDE1,PEPTIDE1,2:R3-17:R3|PEPTIDE1,PEPTIDE1,9:R3-22:R3|PEPTIDE1,PEPTIDE1,16:R3-29:R3$$$V2.0)	–	–	IC50 [1]: > 10000 nM
COC(=O)C1=C(C)NC(C)=C(C(=O)OC)C1c1ccccc1[N+](=O)[O-] [Nifedipine, reference compound]	–	–	IC90 ([2]; CHO): 10000 nM
CC(C)C[C@@H]1NC(=O)[C@@H](NC(=O)[C@H](C)N)CSSC[C@@H]2NC(=O)[C@@H]3CSSC[C@@H](C(=O)N[C@@H](CCCNC(=N)N)C(=O)N[C@@H](Cc4ccc(O)cc4)C(=O)N[C@@H](CCCCN)C(=O)N[C@@H](CC(C)C)C(=O)N[C@@H](Cc4ccccc4)C(=O)O)NC(=O)[C@H](Cc4c[nH]c5ccccc45)NC(=O)[C@@H]4CCCN4C(=O)[C@H](Cc4ccc(O)cc4)NC(=O)[C@H](CCCCN)NC(=O)[C@H](Cc4c[nH]c5ccccc45)NC(=O)[C@H](CCC(=O)O)NC(=O)[C@H](CSSC[C@H](NC(=O)[C@H](C)NC(=O)[C@H](CC(=O)O)NC(=O)[C@H](Cc4c[nH]c5ccccc45)NC(=O)[C@H](CCC(N)=O)NC(=O)CNC1=O)C(=O)N[C@@H](CC(=O)O)C(=O)N1CCC[C@H]1C(=O)N[C@@H](CCCCN)C(=O)N[C@@H](C)C(=O)N[C@@H](CO)C(=O)N[C@@H](CCCCN)C(=O)N3)NC(=O)[C@H](C)NC(=O)[C@H](Cc1ccc(O)cc1)NC(=O)[C@H](CC(N)=O)NC(=O)[C@@H]1CCCN1C2=O [S8A] (HELM PEPTIDE1{A.C.L.G.Q.W.D.A.C.D.P.K.A.S.K.C.C.P.N.Y.A.C.E.W.K.Y.P.W.C.R.Y.K.L.F}$PEPTIDE1,PEPTIDE1,2:R3-17:R3|PEPTIDE1,PEPTIDE1,9:R3-22:R3|PEPTIDE1,PEPTIDE1,16:R3-29:R3$$$V2.0)	less than 3 fold	180 nM	–
CC(C)C[C@@H]1NC(=O)[C@@H](NC(=O)[C@H](C)N)CSSC[C@@H]2NC(=O)[C@@H]3CSSC[C@@H](C(=O)N[C@@H](CCCNC(=N)N)C(=O)N[C@@H](Cc4ccc(O)cc4)C(=O)N[C@@H](CCCCN)C(=O)N[C@@H](CC(C)C)C(=O)N[C@@H](Cc4ccccc4)C(=O)O)NC(=O)[C@H](Cc4c[nH]c5ccccc45)NC(=O)[C@@H]4CCCN4C(=O)[C@H](Cc4ccc(O)cc4)NC(=O)[C@H](CCCCN)NC(=O)[C@H](C)NC(=O)[C@H](CCC(=O)O)NC(=O)[C@H](CSSC[C@H](NC(=O)[C@H](CO)NC(=O)[C@H](CC(=O)O)NC(=O)[C@H](Cc4c[nH]c5ccccc45)NC(=O)[C@H](CCC(N)=O)NC(=O)CNC1=O)C(=O)N[C@@H](CC(=O)O)C(=O)N1CCC[C@H]1C(=O)N[C@@H](CCCCN)C(=O)N[C@@H](C)C(=O)N[C@@H](CO)C(=O)N[C@@H](CCCCN)C(=O)N3)NC(=O)[C@H](C)NC(=O)[C@H](Cc1ccc(O)cc1)NC(=O)[C@H](CC(N)=O)NC(=O)[C@@H]1CCCN1C2=O [W24A] (HELM PEPTIDE1{A.C.L.G.Q.W.D.S.C.D.P.K.A.S.K.C.C.P.N.Y.A.C.E.A.K.Y.P.W.C.R.Y.K.L.F}$PEPTIDE1,PEPTIDE1,2:R3-17:R3|PEPTIDE1,PEPTIDE1,9:R3-22:R3|PEPTIDE1,PEPTIDE1,16:R3-29:R3$$$V2.0)	–	–	IC50 [1]: > 10000 nM
CC(C)C[C@@H]1NC(=O)[C@@H](NC(=O)[C@H](C)N)CSSC[C@@H]2NC(=O)[C@@H]3CSSC[C@@H](C(=O)N[C@@H](CCCNC(=N)N)C(=O)N[C@@H](Cc4ccc(O)cc4)C(=O)N[C@@H](CCCCN)C(=O)N[C@@H](CC(C)C)C(=O)N[C@@H](Cc4ccccc4)C(=O)O)NC(=O)[C@H](Cc4c[nH]c5ccccc45)NC(=O)[C@@H]4CCCN4C(=O)[C@H](C)NC(=O)[C@H](CCCCN)NC(=O)[C@H](Cc4c[nH]c5ccccc45)NC(=O)[C@H](CCC(=O)O)NC(=O)[C@H](CSSC[C@H](NC(=O)[C@H](CO)NC(=O)[C@H](CC(=O)O)NC(=O)[C@H](Cc4c[nH]c5ccccc45)NC(=O)[C@H](CCC(N)=O)NC(=O)CNC1=O)C(=O)N[C@@H](CC(=O)O)C(=O)N1CCC[C@H]1C(=O)N[C@@H](CCCCN)C(=O)N[C@@H](C)C(=O)N[C@@H](CO)C(=O)N[C@@H](CCCCN)C(=O)N3)NC(=O)[C@H](C)NC(=O)[C@H](Cc1ccc(O)cc1)NC(=O)[C@H](CC(N)=O)NC(=O)[C@@H]1CCCN1C2=O [Y26A] (HELM PEPTIDE1{A.C.L.G.Q.W.D.S.C.D.P.K.A.S.K.C.C.P.N.Y.A.C.E.W.K.A.P.W.C.R.Y.K.L.F}$PEPTIDE1,PEPTIDE1,2:R3-17:R3|PEPTIDE1,PEPTIDE1,9:R3-22:R3|PEPTIDE1,PEPTIDE1,16:R3-29:R3$$$V2.0)	–	–	IC50 [1]: > 10000 nM
CcoTx1: spider toxin, NaV ligand (CLGWFKSCDPKNDKCCKNYTCSRRDRWCKYDL)	–	–	IC50 [3]: 2 to 130 nM; concentration efficient to diminish or completely reverse the OD1-induced manifestations of pain [4]: 1 µM
Pre1a: spider toxin, NaV ligand (CLGWFSRCSPKNDKCCPNYKCSSKDLWCKYKIW)	–	–	IC50 [3]: 114 nM
